According to article PMC12115217, “3,3′-((3-Hydroxyphenyl)azanediyl)dipropionic Acid Derivatives as a Promising Scaffold Against Drug-Resistant Pathogens and Chemotherapy-Resistant Cancer” (Pathogens, 2025):
Values after ≈ are worked out from the molar mass of the structure shown. Counter-ions that a name gives are not always drawn. Like-named read-outs stand apart in the source and are kept apart here.

What was measured:
E. faecalis AR-0671 = assay: Broth microdilution MIC, E. faecalis AR-0671; format: cell-based, Enterococcus faecalis; settings: for MIC: Enterococcus faecalis
Excerpt: (§1) The multidrug-resistant S. aureus strain TCH 1516 [USA 300-HOU-MR] was obtained from the American Type Culture Collection (ATCC, Manassas, VA, USA) (Table 1). E. faecalis AR-0671, multidrug-resistant E. coli AR-0001, K. pneumoniae AR-0003, P. aeruginosa AR-1114, and A. baumannii AR-0273 strains were acquired from the Centers for Disease Control and Prevention (CDC) AR isolate bank (Table 1). Prior to the initiation of this study, all microbial strains were stored in commercial cryopreservation systems at a temperature of −80 °C. The strains were cultivated on Columbia sheep blood agar (Becton Dickinson, Franklin Lakes, NJ, USA) or potato dextrose agar (PDA) for Candida (Becton Dickinson, Franklin Lakes, NJ, USA).
(§2) The antimicrobial activity of 3-((3-hydroxyphenyl)amino)propanoic acid derivatives was assessed by using the broth microdilution method, following the guidelines outlined by the Clinical Laboratory Standards Institute (CLSI), with modifications. In brief, the compounds were dissolved in dimethyl sulfoxide (DMSO) to attain a final concentration of 25–30 mg/mL. Vancomycin hydrochloride (MedChem express, Cat. No. HY-17362), cefazolin (MedChem express, Cat. No. HY-B1892), and meropenem (MedChem express, Cat. No. HY-13678) were used as control antimicrobial drugs and were dissolved in DMSO as described before. Dilution series were prepared in deep 96-well microplates to achieve a two-fold concentration range of 0.25, 0.5, 1, 2, 4, 8, 16, 32, and 64 µg/mL, utilizing cation-adjusted Mueller–Hinton broth (CAMHB) as the growth medium. The microplates containing the dilution series were then inoculated with fresh cultures of each tested organism to reach a final concentration of 5 × 10^4 CFU (colony-forming units) of the test organism in media containing 1% DMSO and 1× drug concentration, with a volume of 200 µL per well. Wells that were inoculated with medium containing 1% DMSO served as positive controls. Subsequently, the microplates were incubated at 35 ± 1 °C for 18 ± 2 h. Following the incubation period, the plates were examined by using a manual microplate viewer (Sensititre Manual Viewbox, ThermoFisher Scientific, Waltham, MA, USA). […] All experiments were conducted in duplicate with three technical replicates for each condition.

S. aureus TCH 1516 = assay: Broth microdilution MIC, S. aureus TCH 1516; format: cell-based; settings: Staphylococcus aureus
A. baumannii AR-0273 = assay: Broth microdilution MIC, A. baumannii AR-0273; format: cell-based, Acinetobacter baumannii; settings: Acinetobacter baumannii, AR0273; OXA-23; CAMHB, 18 ± 2 h; read-out: minimal inhibitory concentration (MIC) A. baumannii AR-0273
Excerpt: as §1, §2

E. coli AR-0001 = assay: Broth microdilution MIC, E. coli AR-0001; format: cell-based; settings: Escherichia coli, AR0001; multidrug-resistant, KPC-3; CAMHB, 18 ± 2 h; read-out: minimal inhibitory concentration (MIC) E. coli AR-0001
K. pneumoniae AR-0003 = assay: Broth microdilution MIC, K. pneumoniae AR-0003; format: cell-based; settings: Klebsiella pneumoniae, AR0003; KPC-3; CAMHB, 18 ± 2 h; read-out: minimal inhibitory concentration (MIC) K. pneumoniae AR-0003
P. aeruginosa AR-1114 = assay: Broth microdilution MIC, P. aeruginosa AR-1114; format: cell-based; settings: Pseudomonas aeruginosa, AR1114; IMP-15; CAMHB, 18 ± 2 h; read-out: minimal inhibitory concentration (MIC) P. aeruginosa AR-1114
FaDu cells = assay: MTT cell viability at fixed 100 µM, FaDu cells; format: cell-based; settings: 24 h, described in words (Figure 2)
Experimental: Test compounds 2–25 were dissolved in hybridoma-grade dimethyl sulfoxide (Millipore, Sigma, Burlington, MA, USA) to prepare stock solutions at concentrations of 10–25 mg/mL. […] For in vitro anticancer activity screening, the compounds were thawed at room temperature, protected from light, and the aliquots were diluted in complete cell culture media to achieve a final concentration of 100 µM and used for the in vitro assays. The cytotoxicity assays were performed in triplicate.
FaDu cells were obtained from the American Type Culture Collection (Rockville, MD, USA). HEK293 cells were kindly provided by Dr. Iliev lab at the Jill Roberts Institute for Inflammatory Bowel Disease, Weill Cornel Medicine of Cornel University (New York, NY, USA). All cells were cultivated in Dulbecco’s Modified Eagle Medium/Nutrient Mixture F-12 (DMEM/F-12) (Gibco, Waltham, MA, USA), 10% fetal bovine serum (FBS) (Gibco, Waltham, MA, USA), 100 U/mL penicillin, and 100 μg/mL streptomycin (P/S) (Gibco, Waltham, MA, USA). Culturing conditions were maintained at 37 °C in a humidified atmosphere containing 5% CO2. The culture medium was refreshed every 2–3 days, and cells were passaged upon reaching 70–80% confluence.
The in vitro inhibitory effects of the compounds were assessed by using the MTT assay. Briefly, cells were plated in 96-well plates at a density of 1 × 10⁴ cells per well. After the cells were allowed to adhere overnight at 37 °C in 5% CO₂, they were treated with compounds at a concentration of 100 µM in triplicate. Following a 20 h incubation, the MTT reagent was added, and the cells were further incubated for 4 h. The resulting formazan was solubilized in anhydrous DMSO, and absorbance was measured at 570 nm by using a microplate reader. Cell viability was calculated by using the following formula: ([AE − AB]/[AC − AB]) × 100%, where AE, AC, and AB represent the absorbance values of experimental samples, untreated controls, and blank wells, respectively. Data analysis was performed by using GraphPad Prism or QuickCalcs.

[1] = AR0671, CAMHB, 18 ± 2 h, read-out: minimal inhibitory concentration (MIC) E. faecalis AR-0671
[2] = MRSA / USA300, mecA MRSA isolate, USA300 lineage, CAMHB, 18 ±, read-out: minimal inhibitory concentration (MIC) S. aureus TCH 1516

Row | SMILES | MIC (E. faecalis AR-0671; AR0671, read-out: minimal inhibitory concentration (MIC) E. faecalis AR-0671) [µg/mL] | MIC (S. aureus TCH 1516; MRSA / USA300, read-out: minimal inhibitory concentration (MIC) S. aureus TCH 1516) [µg/mL] | MIC (E. faecalis AR-0671; [1]) [µg/mL] | MIC (A. baumannii AR-0273) [µg/mL] | MIC (S. aureus TCH 1516; [2]) [µg/mL] | MIC (E. coli AR-0001) [µg/mL] | MIC (K. pneumoniae AR-0003) [µg/mL] | MIC (P. aeruginosa AR-1114) [µg/mL] | post-treatment viability (MTT assay) (FaDu cells) | minimal inhibitory concentration (MIC) E. faecalis AR-0671 (E. faecalis AR-0671; CAMHB) [µg/mL]
1 | CN[C@H](CC(C)C)C(=O)N[C@H]1C(=O)N[C@@H](CC(N)=O)C(=O)N[C@H]2C(=O)N[C@H]3C(=O)N[C@H](C(=O)N[C@H](C(=O)O)c4cc(O)cc(O)c4-c4cc3ccc4O)[C@H](O)c3ccc(c(Cl)c3)Oc3cc2cc(c3O[C@@H]2O[C@H](CO)[C@@H](O)[C@H](O)[C@H]2O[C@H]2C[C@](C)(N)[C@H](O)[C@H](C)O2)Oc2ccc(cc2Cl)[C@H]1O [Vancomycin, Vancomycin hydrochloride, reference compound] | 4 | 2 | – | – | – | – | – | – | – | –
2 | O=C(CCN(CCC(=O)NN=Cc1ccc(F)cc1F)c1cccc(O)c1)NN=Cc1ccc(F)cc1F [Compound 9, 3,3′-((3-Hydroxyphenyl)azanediyl)bis(N′-(2,4-difluorobenzylidene)propanehydrazide)] | – | – | > 64 | > 64 | > 64 | > 64 | > 64 | > 64 | – | –
3 | Cc1cc(C)n(C(=O)CCN(CCC(=O)n2nc(C)cc2C)c2cccc(O)c2)n1 [Compound 24, 3,3′-((3-Hydroxyphenyl)azanediyl)bis(1-(3,5-dimethyl-1H-pyrazol-1-yl)propan-1-one)] | – | – | > 64 | > 64 | > 64 | > 64 | > 64 | > 64 | reduced viability | –
4 | COC(=O)CCN(CCC(=O)OC)c1cccc(O)c1 [Compound 3, Dimethyl 3,3′-((3-hydroxyphenyl)azanediyl)dipropionate] | – | – | > 64 | > 64 | > 64 | 32 (≈ 114 µM) | > 64 | > 64 | minimal cytotoxicity | –
5 | C/C(=N\NC(=O)CCN(CCC(=O)N/N=C(\C)c1ccc(S(N)(=O)=O)cc1)c1cccc(O)c1)c1ccc(S(N)(=O)=O)cc1 [Compound 22, 4,4′-(((3,3′-((3-Hydroxyphenyl)azanediyl)bis(propanoyl))bis(hydrazin-2-yl-1-ylidene))bis(ethan-1-yl-1-ylidene))dibenzenesulfonamide] | – | – | 32 (≈ 49.7 µM) | > 64 | 8 (≈ 12.4 µM) | 16 (≈ 24.9 µM) | > 64 | > 64 | – | –
6 | Cc1ccc(C)n1NC(=O)CCN(CCC(=O)Nn1c(C)ccc1C)c1cccc(O)c1 [Compound 23, 3,3′-((3-Hydroxyphenyl)azanediyl)bis(N-(2,5-dimethyl-1H-pyrrol-1-yl)propanamide)] | – | – | > 64 | > 64 | 64 (≈ 146 µM) | > 64 | > 64 | > 64 | reduced viability | –
7 | CN(C)c1ccc(/C=N/NC(=O)CCN(CCC(=O)N/N=C/c2ccc(N(C)C)cc2)c2cccc(O)c2)cc1 [Compound 12] | – | – | > 64 | 64 (≈ 118 µM) | 64 (≈ 118 µM) | > 64 | 64 (≈ 118 µM) | 64 (≈ 118 µM) | enhanced cytotoxic effects | –
8 | O=C(CCN(CCC(=O)NN=Cc1ccc(Cl)cc1)c1cccc(O)c1)NN=Cc1ccc(Cl)cc1 [Compound 11, 3,3′-((3-Hydroxyphenyl)azanediyl)bis(N′-(4-chlorobenzylidene)propanehydrazide)] | – | – | > 64 | > 64 | 64 (≈ 122 µM) | > 64 | > 64 | > 64 | – | >64
9 | O=C(CCN(CCC(=O)N/N=C/c1ccco1)c1cccc(O)c1)N/N=C/c1ccco1 [Compound 15] | – | – | > 64 | 64 (≈ 146 µM) | > 64 | > 64 | > 64 | 64 (≈ 146 µM) | enhanced cytotoxic effects | –
10 | Cc1nnc(SCC2=C(C(=O)O)N3C(=O)[C@@H](NC(=O)Cn4cnnn4)[C@H]3SC2)s1 [Cefazolin, cefazolin, reference compound] | – | – | 8 (≈ 17.6 µM) | > 64 | 32 (≈ 70.4 µM) | > 64 | > 64 | > 64 | – | –
11 | CCC(C)=NNC(=O)CCN(CCC(=O)NN=C(C)CC)c1cccc(O)c1 [Compound 20, 3,3′-((3-Hydroxyphenyl)azanediyl)bis(N′-(butan-2-ylidene)propanehydrazide)] | – | – | 32 (≈ 82.2 µM) | > 64 | 16 (≈ 41.1 µM) | > 64 | > 64 | > 64 | – | –
12 | O=C(CCN(CCC(=O)NN=Cc1cccc2ccccc12)c1cccc(O)c1)NN=Cc1cccc2ccccc12 [Compound 14, 3,3′-((3-Hydroxyphenyl)azanediyl)bis(N′-(naphthalen-1-ylmethylene)propanehydrazide)] | – | – | 8 (≈ 14.3 µM) | > 64 | 2 (≈ 3.59 µM) | 64 (≈ 115 µM) | > 64 | > 64 | – | –
13 | CC(=NNC(=O)CCN(CCC(=O)NN=C(C)c1ccccc1)c1cccc(O)c1)c1ccccc1 [Compound 21, 3-((3-Hydroxyphenyl)(3-oxo-3-(2-(1-phenylethylidene)hydrazineyl)propyl)amino)-N′-(1-phenylethylidene)propanehydrazide] | – | – | 32 (≈ 65.9 µM) | > 64 | 32 (≈ 65.9 µM) | > 64 | > 64 | > 64 | – | –
14 | C[C@@H](O)[C@H]1C(=O)N2C(C(=O)O)=C(S[C@@H]3CN[C@H](C(=O)N(C)C)C3)[C@H](C)[C@H]12 [Meropenem, meropenem, reference compound] | – | – | 2 (≈ 5.22 µM) | > 64 | 2 (≈ 5.22 µM) | 8 (≈ 20.9 µM) | 64 (≈ 167 µM) | 32 (≈ 83.4 µM) | – | –
